{"source": "paper PMC6199744", "about": "“Development of Chemical Proteomics for the Folateome and Analysis of the Kinetoplastid Folateome” (ACS Infectious Diseases, 2018)", "format_in_all_cases": "binding", "key": {"[1]": {"molecular_target": "T1, HeLa cell extract proteins (Homo sapiens, UniProt O95486)", "T1 construct": "endogenous in cells; host or cells: HeLa cell extract", "T1 sequence (O95486 1-1093)": "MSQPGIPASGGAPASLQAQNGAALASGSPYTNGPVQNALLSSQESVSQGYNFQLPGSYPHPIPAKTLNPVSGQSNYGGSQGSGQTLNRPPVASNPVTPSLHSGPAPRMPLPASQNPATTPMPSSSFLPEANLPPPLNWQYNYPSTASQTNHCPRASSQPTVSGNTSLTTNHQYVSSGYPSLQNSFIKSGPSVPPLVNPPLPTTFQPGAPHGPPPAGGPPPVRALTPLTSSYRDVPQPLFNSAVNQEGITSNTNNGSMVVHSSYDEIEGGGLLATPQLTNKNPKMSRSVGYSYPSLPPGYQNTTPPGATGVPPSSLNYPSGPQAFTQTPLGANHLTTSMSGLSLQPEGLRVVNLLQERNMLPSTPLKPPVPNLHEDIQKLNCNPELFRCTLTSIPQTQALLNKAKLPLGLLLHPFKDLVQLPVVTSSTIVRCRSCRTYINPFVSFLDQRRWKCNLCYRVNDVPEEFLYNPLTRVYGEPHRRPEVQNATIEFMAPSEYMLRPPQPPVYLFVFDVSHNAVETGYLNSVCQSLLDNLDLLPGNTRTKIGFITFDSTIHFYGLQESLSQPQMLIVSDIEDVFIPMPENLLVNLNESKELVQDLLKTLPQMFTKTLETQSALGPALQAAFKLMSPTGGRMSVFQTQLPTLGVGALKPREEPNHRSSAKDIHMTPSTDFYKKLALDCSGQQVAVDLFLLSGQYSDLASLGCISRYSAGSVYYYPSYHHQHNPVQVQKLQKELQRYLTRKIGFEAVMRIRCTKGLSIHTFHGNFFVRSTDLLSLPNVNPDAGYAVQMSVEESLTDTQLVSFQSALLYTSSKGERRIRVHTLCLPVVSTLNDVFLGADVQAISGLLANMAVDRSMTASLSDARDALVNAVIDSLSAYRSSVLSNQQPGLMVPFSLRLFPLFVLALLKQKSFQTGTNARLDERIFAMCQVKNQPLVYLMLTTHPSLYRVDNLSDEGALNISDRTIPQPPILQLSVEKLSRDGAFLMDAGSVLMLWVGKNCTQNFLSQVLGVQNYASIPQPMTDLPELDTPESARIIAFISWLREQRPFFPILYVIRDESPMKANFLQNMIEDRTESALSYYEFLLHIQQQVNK"}, "[2]": {"molecular_target": "T2, HeLa cell extract proteins (Homo sapiens, UniProt P55735)", "T2 construct": "endogenous in cells; host or cells: HeLa cell extract", "T2 sequence (P55735 1-322)": "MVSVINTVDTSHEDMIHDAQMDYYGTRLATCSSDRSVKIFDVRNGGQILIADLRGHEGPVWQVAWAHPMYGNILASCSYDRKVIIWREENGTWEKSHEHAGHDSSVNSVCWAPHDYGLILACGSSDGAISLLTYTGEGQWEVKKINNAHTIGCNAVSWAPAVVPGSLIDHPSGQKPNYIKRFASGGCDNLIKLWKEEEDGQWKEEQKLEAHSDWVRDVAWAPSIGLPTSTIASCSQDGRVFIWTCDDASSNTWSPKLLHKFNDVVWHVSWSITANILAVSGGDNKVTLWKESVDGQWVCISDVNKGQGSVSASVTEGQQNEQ"}, "[3]": {"molecular_target": "T3, HeLa cell extract proteins (Homo sapiens, UniProt Q9NVE7)", "T3 construct": "endogenous in cells; host or cells: HeLa cell extract", "T3 sequence (Q9NVE7 1-773)": "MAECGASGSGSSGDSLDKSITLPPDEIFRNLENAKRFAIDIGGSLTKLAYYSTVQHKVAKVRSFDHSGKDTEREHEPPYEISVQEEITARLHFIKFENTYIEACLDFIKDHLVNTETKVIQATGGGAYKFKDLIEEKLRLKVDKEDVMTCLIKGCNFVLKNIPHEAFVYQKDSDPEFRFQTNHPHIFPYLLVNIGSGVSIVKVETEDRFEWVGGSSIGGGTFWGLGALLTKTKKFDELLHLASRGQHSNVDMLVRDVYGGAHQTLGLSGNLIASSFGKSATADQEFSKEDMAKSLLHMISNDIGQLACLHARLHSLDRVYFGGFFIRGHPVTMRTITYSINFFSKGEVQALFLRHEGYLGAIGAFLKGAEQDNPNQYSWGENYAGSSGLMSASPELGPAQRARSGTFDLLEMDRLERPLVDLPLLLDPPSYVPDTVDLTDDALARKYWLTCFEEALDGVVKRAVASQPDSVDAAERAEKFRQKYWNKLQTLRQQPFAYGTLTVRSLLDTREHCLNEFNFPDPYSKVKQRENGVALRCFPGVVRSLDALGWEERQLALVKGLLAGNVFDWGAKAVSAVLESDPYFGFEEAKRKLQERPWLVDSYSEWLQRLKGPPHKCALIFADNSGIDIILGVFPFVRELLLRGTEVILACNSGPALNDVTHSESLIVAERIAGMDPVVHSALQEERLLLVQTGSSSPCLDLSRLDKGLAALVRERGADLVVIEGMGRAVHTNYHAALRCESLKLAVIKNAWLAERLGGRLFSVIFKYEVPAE"}, "[4]": {"molecular_target": "T4, HeLa cell extract proteins (Homo sapiens, UniProt P61160)", "T4 construct": "endogenous in cells; host or cells: HeLa cell extract"}, "[5]": {"molecular_target": "T5, HeLa cell extract proteins (Homo sapiens, UniProt Q06830)", "T5 construct": "endogenous in cells; host or cells: HeLa cell extract", "T5 sequence (Q06830 1-199)": "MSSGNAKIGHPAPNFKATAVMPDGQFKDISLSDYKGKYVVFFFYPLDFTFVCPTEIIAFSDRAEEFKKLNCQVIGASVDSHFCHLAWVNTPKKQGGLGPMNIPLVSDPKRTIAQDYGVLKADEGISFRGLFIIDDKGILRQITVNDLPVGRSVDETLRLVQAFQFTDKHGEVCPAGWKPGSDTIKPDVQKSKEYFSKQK"}}, "note": "Where two headings read alike, the source gives them in different places."}
{"smiles": "Nc1nc2c(c(=O)[nH]1)N(C=O)C(CNc1ccc(C(=O)N[C@@H](CCC(=O)O)C(=O)O)cc1)CN2", "note": "(some centres unmarked) [LEU, leucovorin]", "values": [{"measurement": "fold changes relative to vehicle control", "setting": "[1]; HeLa, protein SEC24A", "result": 1.02}, {"measurement": "fold changes relative to vehicle control", "setting": "[2]; HeLa, captured protein SEC13", "result": 1.02}, {"measurement": "fold changes relative to vehicle control", "setting": "[3]; HeLa, captured protein PANK4", "result": 0.97}, {"measurement": "fold changes relative to vehicle control", "setting": "[4]; HeLa, protein ACTR2", "result": 0.99}, {"measurement": "fold changes relative to vehicle control", "setting": "[5]; HeLa, protein PRDX1", "result": 1.01}]}
{"smiles": "Nc1nc2[nH]cc(CCc3ccc(C(=O)N[C@@H](CCC(=O)O)C(=O)O)cc3)c2c(=O)[nH]1", "note": "[PTX, pemetrexed]", "values": [{"measurement": "fold changes relative to vehicle control", "setting": "[1]", "result": 1.03}, {"measurement": "fold changes relative to vehicle control", "setting": "[2]", "result": 0.92}, {"measurement": "fold changes relative to vehicle control", "setting": "[3]", "result": 0.93}, {"measurement": "fold changes relative to vehicle control", "setting": "[4]", "result": 1.08}, {"measurement": "fold changes relative to vehicle control", "setting": "[5]", "result": 1.05}]}
{"smiles": "CCCCCCOc1ccc(Cc2cnc(N)nc2N)cc1", "note": "[compound 1]", "values": [{"measurement": "fold changes relative to vehicle control", "setting": "[1]; protein SEC24A, HeLa", "result": 1.15}, {"measurement": "fold changes relative to vehicle control", "setting": "[2]; HeLa, protein SEC13", "result": 0.93}, {"measurement": "fold changes relative to vehicle control", "setting": "[3]; captured protein PANK4, HeLa", "result": 0.98}, {"measurement": "fold changes relative to vehicle control", "setting": "[4]; protein ACTR2, HeLa", "result": 1.06}, {"measurement": "fold changes relative to vehicle control", "setting": "[5]; protein PRDX1, HeLa", "result": 1.24}]}
{"smiles": "CCCCCCOc1cccc(Cc2cnc(N)nc2N)c1", "note": "[compound 2]", "values": [{"measurement": "fold changes relative to vehicle control", "setting": "[1]; protein SEC24A, HeLa", "result": 1.44}, {"measurement": "fold changes relative to vehicle control", "setting": "[2]; HeLa, protein SEC13", "result": 0.86}, {"measurement": "fold changes relative to vehicle control", "setting": "[3]; captured protein PANK4, HeLa", "result": 1.12}, {"measurement": "fold changes relative to vehicle control", "setting": "[4]; protein ACTR2, HeLa", "result": 1.44}, {"measurement": "fold changes relative to vehicle control", "setting": "[5]; protein PRDX1, HeLa", "result": 2.05}]}
{"smiles": "Nc1nc2cccc(-c3ccccc3)c2n1Cc1ccc(Cl)c(Cl)c1", "note": "[compound 3]", "values": [{"measurement": "fold changes relative to vehicle control", "setting": "[1]; protein SEC24A, HeLa", "result": 1.03}, {"measurement": "fold changes relative to vehicle control", "setting": "[2]; HeLa, protein SEC13", "result": 0.95}, {"measurement": "fold changes relative to vehicle control", "setting": "[3]; captured protein PANK4, HeLa", "result": 1.02}, {"measurement": "fold changes relative to vehicle control", "setting": "[4]; protein ACTR2, HeLa", "result": 1.13}, {"measurement": "fold changes relative to vehicle control", "setting": "[5]; protein PRDX1, HeLa", "result": 0.85}]}
{"smiles": "NCCOCCOCC(=O)Nc1nc2ncc(CNc3ccc(C(=O)NC(CCC(=O)O)C(=O)O)cc3)nc2c(=O)[nH]1", "note": "(centres unmarked) [compound 6]", "values": [{"measurement": "fold changes relative to vehicle control", "setting": "[1]; HeLa, protein SEC24A", "result": 1.03}, {"measurement": "fold changes relative to vehicle control", "setting": "[2]; HeLa, captured protein SEC13", "result": 0.86}, {"measurement": "fold changes relative to vehicle control", "setting": "[3]; HeLa, captured protein PANK4", "result": 0.96}, {"measurement": "fold changes relative to vehicle control", "setting": "[4]; HeLa, protein ACTR2", "result": 1.18}, {"measurement": "fold changes relative to vehicle control", "setting": "[5]; HeLa, protein PRDX1", "result": 1.1}]}
{"smiles": "NCCCNc1ccc(C(=O)NC(CCC(=O)O)C(=O)O)cc1", "note": "(centres unmarked) [compound 7]", "values": [{"measurement": "fold changes relative to vehicle control", "setting": "[1]; HeLa, protein SEC24A", "result": 1.01}, {"measurement": "fold changes relative to vehicle control", "setting": "[2]; HeLa, captured protein SEC13", "result": 0.98}, {"measurement": "fold changes relative to vehicle control", "setting": "[3]; HeLa, captured protein PANK4", "result": 1.04}, {"measurement": "fold changes relative to vehicle control", "setting": "[4]; HeLa, protein ACTR2", "result": 0.97}, {"measurement": "fold changes relative to vehicle control", "setting": "[5]; HeLa, protein PRDX1", "result": 0.87}]}
